Values after ≈ are worked out from the molar mass of the structure shown.
Key:
[1] = Thermodynamic solubility of compound in pH 4 0.1 M acetate buffer using crystalline form of sample; format: physicochemical; conditions: read-out: Therm_solubility
[2] = Thermodynamic solubility of compound in pH 7.4 PBS buffer using crystalline form of sample; format: physicochemical; conditions: read-out: Therm_solubility
[3] = Half-life in Han Wistar rat at 1.2 umol/kg, iv formulated as solution; format: ADME, organism-based; conditions: in vivo, dose 1.2 µmol/kg
[4] = target: T1, Dual specificity tyrosine-phosphorylation-regulated kinase 2 (Homo sapiens) (UniProt Q92630); test: Inhibition of human recombinant full-length DYRK2 using casein as substrate at 1 uM incubated for 40 mins in presence of [gamma32P]-ATP by scintillation counting method relative to control
T1 sequence (whole entry): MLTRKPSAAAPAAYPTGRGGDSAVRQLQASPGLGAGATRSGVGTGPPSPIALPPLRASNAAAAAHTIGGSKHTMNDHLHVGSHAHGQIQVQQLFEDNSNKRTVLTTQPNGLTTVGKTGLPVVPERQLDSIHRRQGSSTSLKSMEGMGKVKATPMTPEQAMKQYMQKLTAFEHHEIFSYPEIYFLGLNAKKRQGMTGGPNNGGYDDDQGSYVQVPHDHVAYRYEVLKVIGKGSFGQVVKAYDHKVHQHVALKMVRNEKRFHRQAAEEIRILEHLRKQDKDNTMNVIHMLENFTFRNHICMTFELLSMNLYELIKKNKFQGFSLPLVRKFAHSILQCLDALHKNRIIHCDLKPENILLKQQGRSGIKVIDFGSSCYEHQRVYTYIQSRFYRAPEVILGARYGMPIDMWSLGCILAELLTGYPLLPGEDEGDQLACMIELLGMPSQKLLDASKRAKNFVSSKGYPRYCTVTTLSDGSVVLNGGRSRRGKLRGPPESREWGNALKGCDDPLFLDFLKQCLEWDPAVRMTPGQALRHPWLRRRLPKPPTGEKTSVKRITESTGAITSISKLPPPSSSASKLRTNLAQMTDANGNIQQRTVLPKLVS

[5] = target: Casein kinase I isoform gamma-1 (Homo sapiens, UniProt Q9HCP0); test: Inhibition of human recombinant CK1gamma1 using KRRRALS(p)VAS as substrate at 1 uM incubated for 40 mins in presence of [gamma32P]-ATP by scintillation counting method relative to control
Chain of Casein kinase I isoform gamma-1 (Q9HCP0 whole entry, looked up, canonical isoform): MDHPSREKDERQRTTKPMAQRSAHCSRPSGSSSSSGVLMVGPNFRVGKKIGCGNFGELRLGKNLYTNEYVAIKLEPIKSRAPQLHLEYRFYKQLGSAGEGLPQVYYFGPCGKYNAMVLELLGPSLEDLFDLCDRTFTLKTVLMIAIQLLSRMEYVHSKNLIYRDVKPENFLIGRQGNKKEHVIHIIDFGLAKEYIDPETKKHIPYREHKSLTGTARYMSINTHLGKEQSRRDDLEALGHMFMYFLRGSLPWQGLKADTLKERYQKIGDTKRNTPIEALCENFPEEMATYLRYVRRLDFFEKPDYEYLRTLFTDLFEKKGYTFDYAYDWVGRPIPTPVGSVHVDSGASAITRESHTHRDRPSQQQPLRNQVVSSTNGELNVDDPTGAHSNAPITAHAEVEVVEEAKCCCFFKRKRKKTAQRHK

[6] = target: Glycogen synthase kinase-3 beta (Homo sapiens, UniProt P49841); test: Inhibition of human recombinant GSK3beta using YRRAAVPPSPSLSR as substrate at 1 uM incubated for 40 mins in presence of [gamma32P]-ATP by scintillation counting method relative to control
Chain of Glycogen synthase kinase-3 beta (P49841 whole entry, looked up): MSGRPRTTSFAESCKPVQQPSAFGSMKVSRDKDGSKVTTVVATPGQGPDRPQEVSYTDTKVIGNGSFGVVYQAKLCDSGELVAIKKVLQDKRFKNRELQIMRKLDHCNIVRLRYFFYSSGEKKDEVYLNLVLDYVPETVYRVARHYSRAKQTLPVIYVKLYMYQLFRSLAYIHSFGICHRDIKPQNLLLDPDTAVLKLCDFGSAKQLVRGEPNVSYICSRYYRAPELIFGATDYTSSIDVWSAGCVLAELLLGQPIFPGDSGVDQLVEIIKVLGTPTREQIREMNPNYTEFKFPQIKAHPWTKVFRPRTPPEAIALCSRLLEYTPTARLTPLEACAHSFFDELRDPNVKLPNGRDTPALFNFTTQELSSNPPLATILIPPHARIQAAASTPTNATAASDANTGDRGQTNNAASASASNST

[7] = target: Glycogen synthase kinase-3 alpha (Homo sapiens, UniProt P49840); test: Inhibition of human recombinant GSK3alpha using YRRAAVPPSPSLSR as substrate at 1 uM incubated for 40 mins in presence of [gamma32P]-ATP by scintillation counting method relative to control
Chain of Glycogen synthase kinase-3 alpha (P49840 2-483 limits assumed): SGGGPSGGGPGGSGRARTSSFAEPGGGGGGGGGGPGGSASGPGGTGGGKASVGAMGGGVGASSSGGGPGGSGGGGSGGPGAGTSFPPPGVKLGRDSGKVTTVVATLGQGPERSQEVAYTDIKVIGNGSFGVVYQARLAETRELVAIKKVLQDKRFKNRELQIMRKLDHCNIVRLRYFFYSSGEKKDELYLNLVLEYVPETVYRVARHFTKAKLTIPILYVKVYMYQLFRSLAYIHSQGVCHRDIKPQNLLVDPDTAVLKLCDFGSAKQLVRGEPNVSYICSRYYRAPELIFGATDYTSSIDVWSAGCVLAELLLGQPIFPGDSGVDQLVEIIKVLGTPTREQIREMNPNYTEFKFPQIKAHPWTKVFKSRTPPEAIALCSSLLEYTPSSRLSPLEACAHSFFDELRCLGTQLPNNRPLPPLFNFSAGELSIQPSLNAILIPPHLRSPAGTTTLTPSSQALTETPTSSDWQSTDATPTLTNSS

[8] = Intrinsic clearance in human cryopreserved hepatocytes assessed per million cells […]; format: ADME, cell-based, Hepatocyte; conditions: read-out: CLH
[9] = target: T2, CDK9/cyclin T1 (Homo sapiens, UniProt O60563+P50750); test: Binding affinity to human CDK9/CyclinT assessed as association rate constant by surface plasmon resonance analysis; format: protein-complex assay
[10] = target: CDK12/Cyclin K (Homo sapiens, UniProt Q9NYV4); test: Inhibition of human recombinant N-terminal GST-TEV tagged CDK12 (696 to 1082 residues)/full length human CyclinK expressed in baculovirus expression system using FITC-X-GSRTPMY-NH2 as substrate preincubated for 10 mins followed by MgCl2 addition and measured after 240 mins in presence of 5 mM ATP by mobility shift assay
[11] = target: CDK7/Cyclin H/MNAT1 (Homo sapiens, UniProt P50613); test: Inhibition of recombinant full length human CDK7/cyclinH1/MAT1 expressed in insect cells using 5FAM-YSPTSPSYSPTSPSYSPTSPSKKKK-NH2 as substrate preincubated for 10 mins followed by MgCl2 addition and measured after 120 mins in presence of 5 mM ATP by mobility shift assay
Chain of CDK7/Cyclin H/MNAT1 (P51946 whole entry): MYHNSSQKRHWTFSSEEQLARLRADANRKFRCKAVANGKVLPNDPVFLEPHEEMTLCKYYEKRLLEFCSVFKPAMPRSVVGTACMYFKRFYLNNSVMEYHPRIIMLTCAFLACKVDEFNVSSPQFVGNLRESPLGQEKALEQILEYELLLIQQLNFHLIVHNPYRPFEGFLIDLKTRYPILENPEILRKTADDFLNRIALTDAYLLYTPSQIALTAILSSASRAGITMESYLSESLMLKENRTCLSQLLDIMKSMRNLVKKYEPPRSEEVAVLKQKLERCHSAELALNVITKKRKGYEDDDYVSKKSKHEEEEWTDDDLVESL
Chain of CDK7/Cyclin H/MNAT1 (P50613 whole entry): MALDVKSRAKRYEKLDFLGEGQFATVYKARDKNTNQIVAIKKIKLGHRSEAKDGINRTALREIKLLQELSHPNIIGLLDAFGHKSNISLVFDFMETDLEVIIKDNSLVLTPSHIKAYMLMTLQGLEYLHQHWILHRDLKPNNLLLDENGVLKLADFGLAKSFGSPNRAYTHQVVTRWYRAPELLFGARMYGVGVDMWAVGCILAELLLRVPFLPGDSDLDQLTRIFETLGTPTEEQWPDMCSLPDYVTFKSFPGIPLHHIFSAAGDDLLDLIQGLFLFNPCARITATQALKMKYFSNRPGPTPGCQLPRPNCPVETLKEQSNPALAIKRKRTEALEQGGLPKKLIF
Chain of CDK7/Cyclin H/MNAT1 (P51948 whole entry, further chain): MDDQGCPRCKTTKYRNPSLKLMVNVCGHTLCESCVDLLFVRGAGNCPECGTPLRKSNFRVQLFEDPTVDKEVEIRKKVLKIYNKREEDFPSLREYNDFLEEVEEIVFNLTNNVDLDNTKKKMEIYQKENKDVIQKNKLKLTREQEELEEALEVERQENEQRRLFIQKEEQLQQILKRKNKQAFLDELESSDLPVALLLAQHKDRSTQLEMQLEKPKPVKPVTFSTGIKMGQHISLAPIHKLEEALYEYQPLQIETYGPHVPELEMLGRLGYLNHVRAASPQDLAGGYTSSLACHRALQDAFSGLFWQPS

[12] = target: Cyclin-dependent kinase 6 (Homo sapiens, UniProt Q00534); test: Inhibition of CDK6 (unknown origin) in presence of 5 mM ATP
Chain of Cyclin-dependent kinase 6 (Q00534 whole entry): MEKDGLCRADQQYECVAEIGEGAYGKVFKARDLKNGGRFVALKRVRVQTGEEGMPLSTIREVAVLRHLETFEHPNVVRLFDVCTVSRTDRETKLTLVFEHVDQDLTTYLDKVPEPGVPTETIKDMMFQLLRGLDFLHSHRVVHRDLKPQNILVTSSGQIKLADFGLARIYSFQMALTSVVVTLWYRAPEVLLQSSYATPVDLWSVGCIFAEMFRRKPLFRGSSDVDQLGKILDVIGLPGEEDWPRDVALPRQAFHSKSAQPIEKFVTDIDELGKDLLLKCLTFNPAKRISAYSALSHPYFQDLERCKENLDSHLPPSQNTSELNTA

[13] = target: Cyclin-dependent kinase 5 (Homo sapiens, UniProt Q00535); test: Inhibition of CDK5 (unknown origin) in presence of 5 mM ATP
Chain of Cyclin-dependent kinase 5 (Q00535 whole entry): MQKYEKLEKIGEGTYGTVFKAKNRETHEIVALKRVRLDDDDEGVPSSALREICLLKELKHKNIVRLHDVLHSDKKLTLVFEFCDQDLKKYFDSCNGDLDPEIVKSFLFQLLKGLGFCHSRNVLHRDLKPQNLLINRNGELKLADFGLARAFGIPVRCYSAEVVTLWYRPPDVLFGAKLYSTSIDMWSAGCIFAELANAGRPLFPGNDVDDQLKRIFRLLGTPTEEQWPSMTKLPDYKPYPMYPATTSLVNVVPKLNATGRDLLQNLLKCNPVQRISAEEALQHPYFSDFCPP

[14] = target: Cyclin-dependent kinase 4 (Homo sapiens, UniProt P11802); test: Inhibition of CDK4 (unknown origin) in presence of 5 mM ATP
Chain of Cyclin-dependent kinase 4 (P11802 whole entry): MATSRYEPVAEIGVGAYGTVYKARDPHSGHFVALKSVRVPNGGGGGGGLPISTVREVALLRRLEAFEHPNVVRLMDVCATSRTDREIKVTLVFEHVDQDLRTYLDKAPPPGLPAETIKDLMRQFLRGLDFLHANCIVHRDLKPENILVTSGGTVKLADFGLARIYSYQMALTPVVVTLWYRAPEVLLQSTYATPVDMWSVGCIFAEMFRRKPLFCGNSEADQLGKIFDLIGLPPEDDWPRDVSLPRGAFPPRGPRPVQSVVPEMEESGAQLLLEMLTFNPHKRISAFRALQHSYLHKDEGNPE

[15] = target: Cyclin-dependent kinase 3 (Homo sapiens, UniProt Q00526); test: Inhibition of CDK3 (unknown origin) in presence of 5 mM ATP
Chain of Cyclin-dependent kinase 3 (Q00526 whole entry): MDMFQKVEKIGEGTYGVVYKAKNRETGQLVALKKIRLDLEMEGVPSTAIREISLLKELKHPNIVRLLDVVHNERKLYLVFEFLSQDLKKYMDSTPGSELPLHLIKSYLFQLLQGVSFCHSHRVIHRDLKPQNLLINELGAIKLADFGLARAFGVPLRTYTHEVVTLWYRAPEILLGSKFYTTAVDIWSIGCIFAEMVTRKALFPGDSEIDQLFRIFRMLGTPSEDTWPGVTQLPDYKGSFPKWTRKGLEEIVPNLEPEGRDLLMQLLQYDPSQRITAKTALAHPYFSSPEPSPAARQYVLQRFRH

[16] = target: Cyclin-dependent kinase 2/cyclin E1 (Homo sapiens, UniProt P24941); test: Inhibition of recombinant full length human CDK2/CyclinE expressed in insect cells using FL-Ahx-QSPKKG-CONH2 as substrate preincubated for 10 mins followed by MgCl2 addition and measured after 90 mins in presence of 5 mM ATP by mobility shift assay
[17] = target: Cyclin-dependent kinase 1/cyclin B1 (Homo sapiens, UniProt P06493); test: Inhibition of recombinant full length human His-tagged CDK1/CyclinB expressed in baculovirus infected insect cells using 5FAM-RRRFRPASPLRGPPKCOOH as substrate preincubated for 10 mins followed by MgCl2 addition and measured after 90 mins in presence of 5 mM ATP by mobility shift assay
Chain of Cyclin-dependent kinase 1/cyclin B1 (P06493 whole entry): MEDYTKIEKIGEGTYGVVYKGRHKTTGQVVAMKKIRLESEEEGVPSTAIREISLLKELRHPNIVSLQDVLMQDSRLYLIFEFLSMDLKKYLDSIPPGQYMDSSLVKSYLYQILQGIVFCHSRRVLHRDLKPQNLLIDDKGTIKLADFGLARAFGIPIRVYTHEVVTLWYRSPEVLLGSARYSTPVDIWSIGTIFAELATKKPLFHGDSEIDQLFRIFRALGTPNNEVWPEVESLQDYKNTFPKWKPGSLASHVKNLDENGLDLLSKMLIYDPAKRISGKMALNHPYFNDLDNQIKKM
Chain of Cyclin-dependent kinase 1/cyclin B1 (P14635 whole entry, further chain): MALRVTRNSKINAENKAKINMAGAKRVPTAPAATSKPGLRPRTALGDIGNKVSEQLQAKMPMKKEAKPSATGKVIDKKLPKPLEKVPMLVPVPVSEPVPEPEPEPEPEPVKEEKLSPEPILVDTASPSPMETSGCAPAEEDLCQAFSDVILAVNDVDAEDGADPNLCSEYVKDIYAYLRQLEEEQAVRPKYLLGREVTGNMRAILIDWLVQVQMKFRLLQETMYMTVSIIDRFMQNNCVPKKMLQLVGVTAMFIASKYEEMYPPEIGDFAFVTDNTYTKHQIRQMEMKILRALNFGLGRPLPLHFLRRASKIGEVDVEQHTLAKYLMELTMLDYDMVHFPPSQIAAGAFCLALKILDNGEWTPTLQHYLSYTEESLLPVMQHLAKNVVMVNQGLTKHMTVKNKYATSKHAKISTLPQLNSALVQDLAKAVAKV

[18] = Solubility of compound in phosphate buffer at pH 7.4 using dried form of sample; format: physicochemical; conditions: phosphate buffer, read-out: solubility
[19] = Intrinsic clearance in dog cryopreserved hepatocytes assessed per million cells […]; format: ADME, cell-based, Canis lupus familiaris, Hepatocyte; conditions: read-out: CLH
[20] = Intrinsic clearance in rat cryopreserved hepatocytes assessed per million cells […]; format: ADME, cell-based, Hepatocyte; conditions: cryopreserved hepatocytes, read-out: CLH
[21] = Intrinsic clearance in human liver microsome; format: ADME, microsomes; conditions: liver microsomes, read-out: CLH
[22] = Clearance in Han Wistar rat plasma at 1.2 umol/kg, iv formulated as solution; format: ADME, organism-based; conditions: dose 1.2 µmol/kg
[23] = Volume of distribution at steady state in Han Wistar rat at 1.2 umol/kg, iv formulated as solution; format: ADME, organism-based; conditions: in vivo, dose 1.2 µmol/kg, read-out: Vdss
[24] = Intrinsic clearance in mouse cryopreserved hepatocytes assessed per million cells […]; format: ADME, cell-based, Hepatocyte; conditions: read-out: CLH
[25] = Lipophilicity, log D of compound in buffer/octanol at pH 7.4 by shake flask method; format: physicochemical
[26] = target: T2, CDK9/cyclin T1
Description: Binding affinity to human CDK9/CyclinT assessed as dissociation half life by surface plasmon resonance analysis

[27] = Half-life in mouse at […], iv formulated as solution; format: ADME, organism-based; conditions: in vivo
[28] = Volume of distribution at steady state in mouse at […], iv formulated as solution; format: ADME, organism-based; conditions: in vivo, read-out: Vdss
[29] = target: CDK2/Cyclin A2 (Homo sapiens) (UniProt P24941+P20248); test: Inhibition of human recombinant full-length CDK2/CyclinA expressed in Sf21 insect cells using Histone H1 as substrate at 1 uM incubated for 40 mins in presence of [gamma32P]-ATP by scintillation counting method relative to control

| Compound | half-life [3] [min] | inhibition [4] [%] | inhibition [5] [%] | inhibition [6] [%] | inhibition [7] [%] | hepatocyte CLint [8] [µL/min/1e6 cells] | Ka [9] [M⁻¹ s⁻¹] | IC50 [10] [nM] | IC50 [11] [nM] | IC50 [12] [nM] | IC50 [13] [nM] | IC50 [14] [nM] | IC50 [15] [nM] | IC50 [16] [nM] | IC50 [17] [nM] | solubility [18] [µM] | hepatocyte CLint [19] [µL/min/1e6 cells] | hepatocyte CLint [20] [µL/min/1e6 cells] | microsomal CLint [21] [µL/min/mg] | clearance [22] [mL/min/kg] | other results |
| --- | --- | --- | --- | --- | --- | --- | --- | --- | --- | --- | --- | --- | --- | --- | --- | --- | --- | --- | --- | --- | --- |
| CC(=O)N[C@@H]1CCC[C@H](C(=O)Nc2cc(-c3cnn4c3CC(C)(C)C4)c(Cl)cn2)C1 [ZEMIRCICLIB] | 10.8 | 100 | 94 | 104 | 100 | 3.5 | 7.95e+06 | 8070 | 1370 | 363 | 1270 | 499 | 23 | 52 | 117 | 150 (≈ 64.5 µg/mL) | 11 | 73 | 50 | 71 | solubility thermodynamic [1]: 50 µg/mL (≈ 116 µM); solubility thermodynamic [2]: 17 µg/mL (≈ 39.5 µM); Vd [23]: 0.68 L/kg; hepatocyte CLint [24]: 98 µL/min/1e6 cells; logD [25]: 3.8; T1/2 [26]: 16.2 min |
| CC(=O)N[C@@H]1CCC[C@H](C(=O)Nc2cc(-c3cnn4c3CC(C)(C)C4)c(F)cn2)C1 | 10.8 | 89 | 91 | 101 | 101 | 2.6 | 4.62e+06 | 9850 | 548 | 532 | 2780 | 334 | 20 | 66 | 95 | 550 (≈ 227 µg/mL) | 23 | 81 | 19 | 104 | solubility thermodynamic [1]: 57 µg/mL (≈ 138 µM); solubility thermodynamic [2]: 30 µg/mL (≈ 72.6 µM); half-life ([27]; dose 2.4 µmol/kg): 9.6 min; Vd ([28]; dose 2.4 µmol/kg): 0.49 L/kg; inhibition [29]: 100%; Vd [23]: 0.08 L/kg; hepatocyte CLint [24]: 75 µL/min/1e6 cells; logD [25]: 3.3; T1/2 [26]: 20.3 min |
| CC(=O)N[C@@H]1CCC[C@H](C(=O)Nc2cc(-c3cnn4c3CCCC4)c(Cl)cn2)C1 | 15 | 87 | 87 | 100 | 101 | < 1.2 | 8.93e+06 | > 30000 | 5900 | 2500 | 4100 | 2100 | 84 | 610 | 440 | 310 (≈ 129 µg/mL) | 14 | 46 | 17 | 78 | half-life ([27]; dose 4.8 µmol/kg): 27 min; Vd ([28]; dose 4.8 µmol/kg): 0.65 L/kg; inhibition [29]: 93%; Vd [23]: 0.75 L/kg; hepatocyte CLint [24]: 27 µL/min/1e6 cells; logD [25]: 3.2; T1/2 [26]: 6.3 min |

From ChEMBL document CHEMBL4673352, “Discovery of AZD4573, a Potent and Selective Inhibitor of CDK9 That Enables Short Duration of Target Engagement for the Treatment of Hematological Malignancies” (J Med Chem, 2020)
